Measured values reported in PubChem BioAssay AID2060625 (Molecular Pharmacology Branch, DTP, NCI, 2025).

System: 186277-243-T-J2-PDC spheroids with HUVEC/MSC, viability
Assay: Anticancer human tumor 186277-243-T-J2-PDC patient-derived colon adenocarcinoma cell line growth inhibition [CLK]
Conditions: for IC50: curve of first compound; for viability, T/C: stronger effect = lower value
Procedure, shortened: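 Multi-cell-type spheroids combined patient-derived tumor cells with HUVEC endothelial cells and human mesenchymal stem cells. Paired agents were dosed in half-log steps down from about clinical Cmax, or from 10 microM where Cmax was unknown.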

[1] = second compound 0.0316 µM, first compound 0.0316 µM
[2] = second compound 0.0316 µM, first compound 0.1 µM
[3] = second compound 0.0316 µM, first compound 0.316 µM
[4] = second compound 0.0316 µM, first compound 1 µM
[5] = second compound 0.0316 µM, first compound 3.16 µM
[6] = second compound 0.0316 µM, first compound 10 µM
[7] = second compound 0.1 µM, first compound 0.0316 µM
[8] = second compound 0.1 µM, first compound 0.1 µM
[9] = second compound 0.1 µM, first compound 0.316 µM
[10] = second compound 0.1 µM, first compound 1 µM
[11] = second compound 0.1 µM, first compound 3.16 µM
[12] = second compound 0.1 µM, first compound 10 µM
[13] = second compound 0.316 µM, first compound 0.0316 µM
[14] = second compound 0.316 µM, first compound 0.1 µM
[15] = second compound 0.316 µM, first compound 0.316 µM
[16] = second compound 0.316 µM, first compound 1 µM
[17] = second compound 0.316 µM, first compound 3.16 µM
[18] = second compound 0.316 µM, first compound 10 µM
[19] = second compound 1 µM, first compound 0.0316 µM
[20] = second compound 1 µM, first compound 0.1 µM
[21] = second compound 1 µM, first compound 0.316 µM
[22] = second compound 1 µM, first compound 1 µM
[23] = second compound 1 µM, first compound 3.16 µM
[24] = second compound 1 µM, first compound 10 µM
[25] = second compound 3.16 µM, first compound 0.0316 µM
[26] = second compound 3.16 µM, first compound 0.1 µM
[27] = second compound 3.16 µM, first compound 0.316 µM
[28] = second compound 3.16 µM, first compound 1 µM
[29] = second compound 3.16 µM, first compound 3.16 µM
[30] = second compound 3.16 µM, first compound 10 µM
[31] = second compound 10 µM, first compound 0.0316 µM
[32] = second compound 10 µM, first compound 0.1 µM
[33] = second compound 10 µM, first compound 0.316 µM
[34] = second compound 10 µM, first compound 1 µM
[35] = second compound 10 µM, first compound 3.16 µM
[36] = second compound 10 µM, first compound 10 µM
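Also: compound exposure lasted seven days before readout.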
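For viability, T/C in this document: 100% = DMSO vehicle control wells.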

Compound `CC(C)CC(NC(=O)C(Cc1ccccc1)NC(=O)c1cnccn1)B(O)O` (stereo unspecified) + CNC(=O)c1ccc(Nc2nc(OC3CCCC3)c3c(-c4ccc5nc(C)oc5c4)c[nH]c3n2)c(OC)c1 has an IC50 (second compound 0.0316 µM) of 3.74 nM, an IC50 (second compound 0.1 µM) of 1.79 nM and an IC50 (second compound 0.316 µM) of 1.03 nM. It also gave an IC50 (second compound 1 µM) of under 0.949 nM, an IC50 (second compound 3.16 µM) of under 0.949 nM and an IC50 (second compound 10 µM) of under 0.949 nM. For the same compound, the viability, T/C (second compound 0.0316 µM, first compound 0.000949 µM) was 112%, the viability, T/C (second compound 0.0316 µM, first compound 0.003 µM) was 60.9% and the viability, T/C (second compound 0.0316 µM, first compound 0.00949 µM) was 4.41%. For the same compound, the viability, T/C (second compound 0.0316 µM, first compound 0.03 µM) was 2.07%, the viability, T/C (second compound 0.0316 µM, first compound 0.0949 µM) was 3.06% and the viability, T/C (second compound 0.0316 µM, first compound 0.3 µM) was 2.24%. For the same compound, the viability, T/C (second compound 0.1 µM, first compound 0.000949 µM) was 77.7%, the viability, T/C (second compound 0.1 µM, first compound 0.003 µM) was 27.6% and the viability, T/C (second compound 0.1 µM, first compound 0.00949 µM) was 3.68%. It also gave a viability, T/C (second compound 0.1 µM, first compound 0.03 µM) of 1.91%, a viability, T/C (second compound 0.1 µM, first compound 0.0949 µM) of 2.97% and a viability, T/C (second compound 0.1 µM, first compound 0.3 µM) of 2.4%. For the same compound, the viability, T/C (second compound 0.316 µM, first compound 0.000949 µM) was 52.8%, the viability, T/C (second compound 0.316 µM, first compound 0.003 µM) was 13.1% and the viability, T/C (second compound 0.316 µM, first compound 0.00949 µM) was 2.31%. The viability, T/C (second compound 0.316 µM, first compound 0.03 µM) was 2.27%, the viability, T/C (second compound 0.316 µM, first compound 0.0949 µM) was 1.45% and the viability, T/C (second compound 0.316 µM, first compound 0.3 µM) was 0.89%. For the same compound, the viability, T/C (second compound 1 µM, first compound 0.000949 µM) was 36.5%, the viability, T/C (second compound 1 µM, first compound 0.003 µM) was 3.94% and the viability, T/C (second compound 1 µM, first compound 0.00949 µM) was 2.3%. The viability, T/C (second compound 1 µM, first compound 0.03 µM) was 2.6%, the viability, T/C (second compound 1 µM, first compound 0.0949 µM) was 4.22% and the viability, T/C (second compound 1 µM, first compound 0.3 µM) was 2.48%. It also gave a viability, T/C (second compound 3.16 µM, first compound 0.000949 µM) of 33.3%, a viability, T/C (second compound 3.16 µM, first compound 0.003 µM) of 2.4% and a viability, T/C (second compound 3.16 µM, first compound 0.00949 µM) of 0.9%. The viability, T/C (second compound 3.16 µM, first compound 0.03 µM) was 2.14%, the viability, T/C (second compound 3.16 µM, first compound 0.0949 µM) was 2.81% and the viability, T/C (second compound 3.16 µM, first compound 0.3 µM) was 0.81%. For the same compound, the viability, T/C (second compound 10 µM, first compound 0.000949 µM) was 40.4%, the viability, T/C (second compound 10 µM, first compound 0.003 µM) was 2.71% and the viability, T/C (second compound 10 µM, first compound 0.00949 µM) was 1.47%. It also gave a viability, T/C (second compound 10 µM, first compound 0.03 µM) of 4.33%, a viability, T/C (second compound 10 µM, first compound 0.0949 µM) of 2.67% and a viability, T/C (second compound 10 µM, first compound 0.3 µM) of 1.5%.

For `CC1COCCN1c1cc(C2(S(C)(=N)=O)CC2)nc(-c2ccnc3[nH]ccc23)n1` (stereo unspecified) + CNC(=O)c1ccc(Nc2nc(OC3CCCC3)c3c(-c4ccc5nc(C)oc5c4)c[nH]c3n2)c(OC)c1, the IC50 (second compound 0.0316 µM) was 2510 nM, the IC50 (second compound 0.1 µM) was 1420 nM and the IC50 (second compound 0.316 µM) was 400 nM. The IC50 (second compound 1 µM) was under 31.6 nM, the IC50 (second compound 3.16 µM) was under 31.6 nM and the IC50 (second compound 10 µM) was under 31.6 nM. For the same compound, the viability, T/C [1] was 109%, the viability, T/C [2] was 109% and the viability, T/C [3] was 105%. It also gave a viability, T/C [4] of 114%, a viability, T/C [5] of 35% and a viability, T/C [6] of 13%. For the same compound, the viability, T/C [7] was 80.7%, the viability, T/C [8] was 77.5% and the viability, T/C [9] was 78.7%. It also gave a viability, T/C [10] of 60%, a viability, T/C [11] of 26.6% and a viability, T/C [12] of 13.7%. For the same compound, the viability, T/C [13] was 55.8%, the viability, T/C [14] was 57% and the viability, T/C [15] was 51.5%. It also gave a viability, T/C [16] of 39%, a viability, T/C [17] of 15.8% and a viability, T/C [18] of 10.5%. The viability, T/C [19] was 35.6%, the viability, T/C [20] was 33.4% and the viability, T/C [21] was 31.2%. The viability, T/C [22] was 22.9%, the viability, T/C [23] was 10.2% and the viability, T/C [24] was 5.07%. The viability, T/C [25] was 33.9%, the viability, T/C [26] was 31.6% and the viability, T/C [27] was 28.9%. The viability, T/C [28] was 21.6%, the viability, T/C [29] was 12.2% and the viability, T/C [30] was 5.1%. For the same compound, the viability, T/C [31] was 34.5%, the viability, T/C [32] was 35.6% and the viability, T/C [33] was 33%. For the same compound, the viability, T/C [34] was 24.9%, the viability, T/C [35] was 13% and the viability, T/C [36] was 7.43%.

Work on `O=C(c1cc(Cc2n[nH]c(=O)c3ccccc23)ccc1F)N1CCN(C(=O)C2CC2)CC1` + CNC(=O)c1ccc(Nc2nc(OC3CCCC3)c3c(-c4ccc5nc(C)oc5c4)c[nH]c3n2)c(OC)c1 yielded an IC50 (second compound 0.0316 µM) of over 10000 nM, an IC50 (second compound 0.1 µM) of over 10000 nM and an IC50 (second compound 0.316 µM) of over 10000 nM. The IC50 (second compound 1 µM) was under 31.6 nM, the IC50 (second compound 3.16 µM) was under 31.6 nM and the IC50 (second compound 10 µM) was under 31.6 nM. The viability, T/C [1] was 129%, the viability, T/C [2] was 119% and the viability, T/C [3] was 113%. It also gave a viability, T/C [4] of 109%, a viability, T/C [5] of 115% and a viability, T/C [6] of 120%. It also gave a viability, T/C [7] of 88.7%, a viability, T/C [8] of 81.7% and a viability, T/C [9] of 88.3%. It also gave a viability, T/C [10] of 81.2%, a viability, T/C [11] of 83.1% and a viability, T/C [12] of 84.1%. For the same compound, the viability, T/C [13] was 55.8%, the viability, T/C [14] was 52.3% and the viability, T/C [15] was 55.4%. The viability, T/C [16] was 56.7%, the viability, T/C [17] was 57.3% and the viability, T/C [18] was 57.6%. It also gave a viability, T/C [19] of 39.5%, a viability, T/C [20] of 39.7% and a viability, T/C [21] of 41.7%. For the same compound, the viability, T/C [22] was 37.7%, the viability, T/C [23] was 41.8% and the viability, T/C [24] was 43.9%. It also gave a viability, T/C [25] of 36.8%, a viability, T/C [26] of 36.6% and a viability, T/C [27] of 34.9%. It also gave a viability, T/C [28] of 36.7%, a viability, T/C [29] of 38.1% and a viability, T/C [30] of 39.6%. It also gave a viability, T/C [31] of 37.7%, a viability, T/C [32] of 37.5% and a viability, T/C [33] of 37.9%. It also gave a viability, T/C [34] of 36.5%, a viability, T/C [35] of 39.9% and a viability, T/C [36] of 35.5%.
